In patent publication US9631225B2, “Luciferase-based assays” (Promega Corporation, priority 2002, dated 2017):

Legend:
[1] = target: T1, firefly luciferase (QuantiLum® luciferase) (Photinus pyralis, UniProt P08659); experiment: Protection of firefly luciferase reaction from inhibition by isoliquirtigenin (ILT); format: biochemical; conditions: ILT 100 μM
T1 construct: purchased Promega Corporation
Method: (§1) In this experiment, several tolerance enhancing agents were evaluated for their ability to protect luciferases from a known luciferase inhibitor, isoliquirtigenin (ILT) (100 μM, Sigma Chemical). ILT was added to luciferase reactions and the potential tolerance enhancing agents were evaluated for their ability to protect the luciferase from inhibition.
The basic firefly luciferase reactions contained 20 mM HEPES (Sigma Chemical) at pH 8.0, 6.4 mM Magnesium Sulfate (Fisher Scientific), 20 mM Dithiothreitol (City Chemical), 0.63 mM Coenzyme A (Pharmacia Biochemical), 0.4 mM EDTA (Sigma Chemical), 4.0 μM Luciferin (Promega Biosciences), 0.56 mM ATP (Pharmacia Biochemical), and 1.3×10^−6 mg/ml firefly luciferase (QuantiLum® luciferase, Promega Corporation).
(§2) ILT was solubilized at 100 mM in dimethyl sulfoxide (Sigma Chemical). ILT was diluted 1:1000 and the protectors were diluted into the reaction mix before the reaction was initiated by the addition of luciferase.
(§3) Reaction volume for each sample was 100 μl. Luminescence was integrated for 0.5 seconds per sample in a Turner Biosystems Veritas® luminometer immediately after luciferase was added to the reactions and the reactions were mixed. All measurements were done in triplicate.
(§4) The relative protection provided by each compound is calculated as difference between the luminescence generated in the presence and the absence of the protector divided by the total amount of inhibition as represented by the following equation: (L1−L2)/(L3−L4) wherein L1 represents luminescence with inhibitor and tolerance enhancing agent; L2 represents luminescence with inhibitor and no tolerance enhancing agent; L3 represents luminescence with no inhibitor and no tolerance enhancing agent; and L4 represents luminescence with inhibitor and no tolerance enhancing agent.
(§5) The relative protection in the presence of no tolerance enhancing agent, therefore, is 0% and in the absence of an inhibitor is 100%. The reactions used to generate luminescence in the absence of either inhibitor or tolerance enhancing agent still contained the solvent utilized to solubilize the inhibitor with which the reaction was to be compared.

Renilla luciferase = target: T2, Renilla luciferase (Renilla reniformis, UniProt P27652); experiment: Protection of Renilla luciferase reaction from inhibition by isoliquirtigenin (ILT); format: biochemical; conditions: ILT 100 μM
T2 construct: purchased ChemiCon Chemicals
T2 sequence (P27652 1-311): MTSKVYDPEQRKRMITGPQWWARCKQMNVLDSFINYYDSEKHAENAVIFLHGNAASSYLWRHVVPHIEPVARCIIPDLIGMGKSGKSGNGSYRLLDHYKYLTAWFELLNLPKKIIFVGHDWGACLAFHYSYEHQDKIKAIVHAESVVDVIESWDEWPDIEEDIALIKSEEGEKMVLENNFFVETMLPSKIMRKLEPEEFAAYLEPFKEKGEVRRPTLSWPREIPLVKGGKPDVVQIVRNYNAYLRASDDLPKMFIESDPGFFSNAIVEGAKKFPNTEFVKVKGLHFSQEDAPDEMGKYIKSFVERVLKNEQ
Method: as §1
The basic Renilla luciferase reactions contained 100 mM Potassium Phosphate buffer (Sigma Chemical) at pH 7.4, 500 mM Sodium Chloride (Fisher Scientific), 1.0 mM EDTA (Sigma Chemical), 200 nM Coelenterazine (Promega Biosciences), 0.1% Gelatin (Sigma Chemical) and 0.12 nmol/ml Renilla luciferase (ChemiCon Chemicals).
as §2, §3, §4, §5

[2] = protector reaction concentration 0.02%
[3] = protector reaction concentration 0.10%

T1 sequence (P08659 whole entry): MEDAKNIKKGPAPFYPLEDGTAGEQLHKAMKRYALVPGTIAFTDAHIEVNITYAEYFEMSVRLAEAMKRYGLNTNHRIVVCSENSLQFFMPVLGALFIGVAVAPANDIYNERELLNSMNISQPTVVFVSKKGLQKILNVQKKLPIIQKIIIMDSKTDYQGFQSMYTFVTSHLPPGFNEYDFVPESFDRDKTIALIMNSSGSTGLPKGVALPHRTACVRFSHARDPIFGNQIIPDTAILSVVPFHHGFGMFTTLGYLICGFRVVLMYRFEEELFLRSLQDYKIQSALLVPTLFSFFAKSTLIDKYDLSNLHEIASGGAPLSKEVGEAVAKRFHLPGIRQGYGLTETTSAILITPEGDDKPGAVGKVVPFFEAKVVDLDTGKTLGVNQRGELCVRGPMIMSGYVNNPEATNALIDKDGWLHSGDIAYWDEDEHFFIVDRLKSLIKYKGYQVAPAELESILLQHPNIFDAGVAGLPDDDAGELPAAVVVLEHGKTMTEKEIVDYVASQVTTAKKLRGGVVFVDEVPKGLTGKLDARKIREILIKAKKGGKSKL

## C[C@H](CCC(=O)NCCC[N+](C)(C)CCCS(=O)(=O)[O-])[C@H]1CC[C@H]2[C@@H]3[C@H](O)C[C@@H]4C[C@H](O)CC[C@]4(C)[C@H]3C[C@H](O)[C@]12C [CHAPS® detergent, 3-([3-Cholamidopropyl]dimethylammonio)-1-propanesulfonate]
[1]; [2]
  Relative Protection Against ILT: 18%
[1]; [3]
  Relative Protection Against ILT: 57%
Renilla luciferase; [3]
  Relative Protection Against ILT: 14%
Renilla luciferase; protector reaction concentration 0.50%
  Relative Protection Against ILT: 97%

## CCCCCCCCCCCCCCCC[N+](C)(C)C.[Br-] [CTAB, cetyltrimethylammonium]
[1]; [2]
  Relative Protection Against ILT: 100%
Renilla luciferase; [3]
  Relative Protection Against ILT: 95%

## OC[C@H]1O[C@@](CO)(O[C@H]2O[C@H](CO)[C@@H](O)[C@H](O)[C@H]2O)[C@@H](O)[C@@H]1O [Sucrose]
[1]; protector reaction concentration 0.5% (w:v)
  Relative Protection Against ILT: 32%
Renilla luciferase; protector reaction concentration 0.10% (w:v)
  Relative Protection Against ILT: 24%

## OC[C@H]1O[C@@H]2O[C@H]3[C@H](O)[C@@H](O)[C@@H](O[C@H]4[C@H](O)[C@@H](O)[C@@H](O[C@H]5[C@H](O)[C@@H](O)[C@@H](O[C@H]6[C@H](O)[C@@H](O)[C@@H](O[C@H]7[C@H](O)[C@@H](O)[C@@H](O[C@H]1[C@H](O)[C@H]2O)O[C@@H]7CO)O[C@@H]6CO)O[C@@H]5CO)O[C@@H]4CO)O[C@@H]3CO [α-Cyclodextrin, α-Cyclodextrin (Cyclohexaamylose)]
[1]; protector reaction concentration 7 mM
  Relative Protection Against ILT: 61%
Renilla luciferase; protector reaction concentration 1.4 mM
  Relative Protection Against ILT: 60%

## Deoxycholate
[1]; [2]
  Relative Protection Against ILT: 81%
Renilla luciferase; [3]
  Relative Protection Against ILT: 72%

## nonylphenol polyethylene glycol ether (C9H19C6H—(OCH2CH2)9OH) [Tergitol NP-9® detergent]
[1]; [2]
  Relative Protection Against ILT: 88%
Renilla luciferase; [3]
  Relative Protection Against ILT: 97%
